Target: T1, LXRβ (Homo sapiens, UniProt P55055)
T1 construct: Co-transfection expression plasmids, comprising full-length LXRα (pCMX-h LXRα[…] or LXRβ (pCMX-hLXRβ)); expressed in transfected cells; host or cells: CV-1 African Green Monkey Kidney Cells
T1 sequence (P55055 1-460): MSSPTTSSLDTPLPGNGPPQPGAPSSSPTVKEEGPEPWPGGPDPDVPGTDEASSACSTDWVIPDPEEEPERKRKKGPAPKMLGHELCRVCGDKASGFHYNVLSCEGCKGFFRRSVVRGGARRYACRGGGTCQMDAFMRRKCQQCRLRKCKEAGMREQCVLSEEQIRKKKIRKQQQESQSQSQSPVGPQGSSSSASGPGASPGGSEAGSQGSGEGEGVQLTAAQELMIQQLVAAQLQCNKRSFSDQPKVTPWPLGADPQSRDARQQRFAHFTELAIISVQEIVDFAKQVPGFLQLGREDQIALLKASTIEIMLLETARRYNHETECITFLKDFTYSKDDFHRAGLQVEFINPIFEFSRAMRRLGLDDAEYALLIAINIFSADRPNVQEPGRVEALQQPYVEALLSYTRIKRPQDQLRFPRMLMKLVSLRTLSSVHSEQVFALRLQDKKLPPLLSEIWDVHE
T1 sequence (P19793 1-462 partner): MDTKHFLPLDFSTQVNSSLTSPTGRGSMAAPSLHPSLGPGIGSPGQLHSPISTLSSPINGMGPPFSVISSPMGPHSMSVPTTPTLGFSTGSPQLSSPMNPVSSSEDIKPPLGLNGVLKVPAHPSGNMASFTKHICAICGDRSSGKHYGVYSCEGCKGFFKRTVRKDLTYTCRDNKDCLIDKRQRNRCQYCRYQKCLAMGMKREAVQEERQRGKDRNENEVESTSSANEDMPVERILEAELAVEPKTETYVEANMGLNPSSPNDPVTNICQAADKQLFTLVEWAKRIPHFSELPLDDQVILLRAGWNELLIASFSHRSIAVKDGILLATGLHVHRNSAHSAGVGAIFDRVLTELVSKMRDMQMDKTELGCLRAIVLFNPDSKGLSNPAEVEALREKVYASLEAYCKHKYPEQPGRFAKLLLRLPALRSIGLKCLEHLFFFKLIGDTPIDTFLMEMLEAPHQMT
Test: Co-transfection assay (LXRE luciferase reporter), LXRβ
Type: cell-based
Set-up: % Efficacy: concentration or dose not given beside the values
Details: for EC50: CV-1 cells transfected with pCMX-hLXRβ and LXREx1-Tk-Luciferase, 20 hours incubation; for Emax: read-out: % Efficacy
Summary of the method: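 CV-1 cells transiently co-transfected with full-length human LXRβ expression plasmid, LXREx1-Tk-luciferase reporter and β-galactosidase control, then exposed to compound for 20 h at 37 °C. Luciferase luminescence read; EC50 from 11-point, ½-log dose–response fit, efficacy relative to high-control agonist maximum.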

[1] = LXRβ co-transfection, relative to high control 1-(2,4-difluorobenzyl)-2-oxo-6-(4-phenoxyphenyl)-4-(trifluoromethyl)-1,2-dihydropyridine-3-carbonitrile

SMILES | EC50 [µM] | Emax [1] [%] | % Efficacy [1] [%]
Cc1nc(C(F)(F)F)cn1-c1ccc(-c2cccc(S(C)(=O)=O)c2)cc1-n1nncc1-c1ccc(Cl)cc1 [Example 66, 5-(4-chlorophenyl)-1-{3′-(methylsulfonyl)-4-[2-methyl-4-(trifluoromethyl)-1H-imidazol-1-yl]biphenyl-3-yl}-1H-1,2,3-triazole] | 0.306 | 98 | 
Cc1nc(-c2cc(-c3ccc(CO)c(S(C)(=O)=O)c3)ccc2-n2cc(C(F)(F)F)nc2C)c(-c2ccc(OC(F)(F)F)cc2)o1 [Example 522, (4′-(2-methyl-4-(trifluoromethyl)-1H-imidazol-1-yl)-3′-(2-methyl-5-(4-(trifluoromethoxy)phenyl)oxazol-4-yl)-3-(methylsulfonyl)-[1,1′-biphenyl]4-yl)methanol] | 0.042 | 86 | 
Cc1nc(C(F)(F)F)cn1-c1ccc(-c2cccc(S(C)(=O)=O)c2)cc1-n1nncc1-c1ccc(OC(F)(F)F)cc1Cl [Example 68, 5-{2-chloro-4-[(trifluoromethyl)oxy]phenyl}-1-{3′-(methylsulfonyl)-4-[2-methyl-4-(trifluoromethyl)-1H-imidazol-1-yl]biphenyl-3-yl}-1H-1,2,3-triazole] | 0.307 | 80 | 
Cc1nc(-c2cc(-c3cccc(S(C)(=O)=O)c3)ccc2-n2cc(C(F)(F)F)nc2C)c(-c2ccc(Cl)c(OC(F)F)c2)o1 [Example 458, 5-(4-chloro-3-(difluoromethoxy)phenyl)-2-methyl-4-(4-(2-methyl-4-(trifluoromethyl)-1H-imidazol-1-yl)-3′-(methylsulfonyl)biphenyl-3-yl)oxazole] | 0.398 | 62 | 
Cc1nc(C(F)(F)F)cn1-c1ccc(-c2cccc(S(C)(=O)=O)c2)cc1-n1nncc1C1(c2ccc(Cl)cc2)CC1 [Example 112, 5-[1-(4-chlorophenyl)cyclopropyl]-1-{3′-(methylsulfonyl)-4-[2-methyl-4-(trifluoromethyl)-1H-imidazol-1-yl]biphenyl-3-yl}-1H-1,2,3-triazole] | 0.973 | 53 | 
Cc1nc(-c2cc(-c3cc(F)c(CO)c(S(C)(=O)=O)c3)ccc2-n2cc(C(F)(F)F)nc2C)c(-c2ccc(F)c(Cl)c2)o1 [Example 509, (3′-(5-(3-chloro-4-fluorophenyl)-2-methyloxazol-4-yl)-3-fluoro-4′-(2-methyl-4-(trifluoromethyl)-1H-imidazol-1-yl)-5-(methylsulfonyl)biphenyl-4-yl)methanol] | 0.058 | 70 | 
Cc1nc(C(F)(F)F)cn1-c1ccc(-c2cc(Cl)c(CO)c(S(C)(=O)=O)c2)cc1-n1nncc1Cc1cccc(Cl)c1 [Example 117, (3-chloro-3′-{5-[(3-chlorophenyl)methyl]-1H-1,2,3-triazol-1-yl}-5-(methylsulfonyl)-4′-[2-methyl-4-(trifluoromethyl)-1H-imidazol-1-yl]biphenyl-4-yl)methanol] | 1.02 | 76 | 
Cc1nc(C(F)(F)F)cn1-c1ccc(-c2cc(F)c(CO)c(S(C)(=O)=O)c2)cc1-c1nc(C2CC2)cn1-c1ccc(Cl)cc1 [Example 647, (3′-(1-(4-chlorophenyl)-4-cyclopropyl-1H-imidazol-2-yl)-3-fluoro-4′-(2-methyl-4-(trifluoromethyl)-1H-imidazol-1-yl)-5-(methylsulfonyl)-[1,1′-biphenyl]-4-yl)methanol] | 0.35 | 49 | 
Cc1nc(C(F)(F)F)cn1-c1ccc(-c2cccc(S(C)(=O)=O)c2)cc1-n1nncc1-c1ccc(OC(F)(F)F)c(Cl)c1 [Example 53, 5-{3-chloro-4-[(trifluoromethyl)oxy]phenyl}-1-{3′-(methylsulfonyl)-4-[2-methyl-4-(trifluoromethyl)-1H-imidazol-1-yl]biphenyl-3-yl}-1H-1,2,3-triazole] | 0.175 | 90 | 
Cc1nc(-c2cc(-c3cc(F)c(CO)c(S(C)(=O)=O)c3)ccc2-n2cc(Cl)nc2C)c(-c2ccc(OC(F)F)c(F)c2)o1 [Example 467, (4′-(4-chloro-2-methyl-1H-imidazol-1-yl)-3′-(5-(4-(difluoromethoxy)-3-fluorophenyl)-2-methyloxazol-4-yl)-3-fluoro-5-(methylsulfonyl)biphenyl-4-yl)methanol] | 0.066 | 65 | 
Cc1nc(C(F)(F)F)cn1-c1ccc(-c2cccc(C(C)(C)C(N)=O)c2)cc1-n1nncc1-c1ccc(OC(F)(F)F)cc1 [Example 27, 2-methyl-2-{4′-[2-methyl-4-(trifluoromethyl)-1H-imidazol-1-yl]-3′-(5-{4-[(trifluoromethyl)oxy]phenyl}-1H-1,2,3-triazol-1-yl)biphenyl-3-yl}propanamide] | 0.561 | 83 | 
Cc1nc(C(F)(F)F)cn1-c1ccc(-c2cc(F)c(CO)c(S(C)(=O)=O)c2)cc1-n1nncc1-c1ccc(Cl)cc1 [Example 58, {3′-[5-(4-chlorophenyl)-1H-1,2,3-triazol-1-yl]-3-fluoro-5-(methylsulfonyl)-4′-[2-methyl-4-(trifluoromethyl)-1H-imidazol-1-yl]biphenyl-4-yl}methanol] | 0.217 | 78 | 
Cc1nc(C(F)(F)F)cn1-c1ccc(-c2cccc(S(C)(=O)=O)c2)cc1-c1nc(C(F)(F)F)cn1-c1ccc(Cl)nc1 [Example 642, 2-chloro-5-(2-(4-(2-methyl-4-(trifluoromethyl)-1H-imidazol-1-yl)-3′-(methylsulfonyl)biphenyl-3-yl)-4-(trifluoromethyl)-1H-imidazol-1-yl)pyridine] | 1.15 | 32 | 
Cc1cc(-c2cc(-c3cc(O)c(CF)c(S(C)(=O)=O)c3)ccc2-n2cc(C(F)(F)F)nc2C)n(-c2ccc(OC(F)(F)F)cc2)n1 [Example 303, 4-(fluoromethyl)-3′-(3-methyl-1-(4-(trifluoromethoxy)phenyl)-1H-pyrazol-5-yl)-4′-(2-methyl-4-(trifluoromethyl)-1H-imidazol-1-yl)-5-(methylsulfonyl)-[1,1′-biphenyl]-3-ol] | 0.021 | 68 | 
COc1cc(-c2oc(C)nc2-c2cc(-c3cccc(S(C)(=O)=O)c3)ccc2-n2cc(C(F)(F)F)nc2C)ccc1OC(F)F [Example 380, 5-(4-(difluoromethoxy)-3-methoxyphenyl)-2-methyl-4-(4-(2-methyl-4-(trifluoromethyl)-1H-imidazol-1-yl)-3′-(methylsulfonyl)biphenyl-3-yl)oxazole] | 0.053 | 91 | 
Cc1nc(-c2cc(-c3cccc(S(C)(=O)=O)c3)ccc2-n2cc(C(C)O)nc2C)c(-c2ccc3c(c2)OC(F)(F)O3)o1 (single isomer, unassigned) [Example 514, 1-(1-(3-(5-(2,2-difluorobenzo[d][1,3]dioxol-5-yl)-2-methyloxazol-4-yl)-3′-(methylsulfonyl)-[1,1′-biphenyl]-4-yl)-2-methyl-1H-imidazol-4-yl)ethanol] | 3 |  | 77
Cc1cc(-c2cnnn2-c2cc(-c3cccc(S(C)(=O)=O)c3)ccc2-n2cc(C(F)(F)F)nc2C)ccc1OC(F)(F)F [Example 20, 1-{3′-(methylsulfonyl)-4-[2-methyl-4-(trifluoromethyl)-1H-imidazol-1-yl]biphenyl-3-yl}-5-{3-methyl-4-[(trifluoromethyl)oxy]phenyl}-1H-1,2,3-triazole] | 0.13 | 93 | 
Cc1nc(C(F)(F)F)c(Cl)n1-c1ccc(-c2cc(F)c(CO)c(S(C)(=O)=O)c2)cc1-c1cnnn1-c1ccc(Cl)cc1 [Example 240, {4′-[5-chloro-2-methyl-4-(trifluoromethyl)-1H-imidazol-1-yl]-3′-[1-(4-chlorophenyl)-1H-1,2,3-triazol-5-yl]-3-fluoro-5-(methylsulfonyl)biphenyl-4-yl}methanol] | 0.142 | 129 | 
COc1ncc(-c2oc(C)nc2-c2cc(-c3cccc(S(C)(=O)=O)c3)ccc2-n2cc(C(F)(F)F)nc2C)cn1 [Example 414, 5-(2-methoxypyrimidin-5-yl)-2-methyl-4-(4-(2-methyl-4-(trifluoromethyl)-1H-imidazol-1-yl)-3′-(methylsulfonyl)biphenyl-3-yl)oxazole] | 0.657 | 70 | 
